Our source for the speed of sound and mass density values is the NIST ThermoML archive (doi:10.1016/j.fluid.2012.08.002).

For the data set the following is noted: 101.33 kPa, Liquid; for speed of sound: Sing-around technique in a fixed-path interferometer; for mass density: Vibrating tube method.

± gives the expanded uncertainty stated by the source.

Turning to `CCCCCCn1cc[n+](C)c1.F[P-](F)(F)(F)(F)F` [1-hexyl-3-methylimidazolium hexafluorophosphate], the speed of sound – broadly, the propagation velocity of pressure waves in the medium – (288.15 K) amounted to 1449.1 ± 1.2 m/s; the speed of sound (293.15 K) turned out to be 1434.1 ± 1.2 m/s; the speed of sound (298.15 K) worked out at 1420.3 ± 1.2 m/s; the speed of sound (303.15 K) is recorded as 1407.3 ± 1.2 m/s; the speed of sound (308.15 K) turned out to be 1394.9 ± 1.2 m/s; the speed of sound (313.15 K) stood at 1383 ± 1.2 m/s. For the same molecule, the speed of sound (318.15 K) is 1371.5 ± 1.2 m/s. The mass density (usually mass per unit of volume) (288.15 K) is recorded as 1302.74 ± 0.49 kg/m3; the mass density (293.15 K) was 1298.71 ± 0.48 kg/m3; the mass density (298.15 K) is given as 1294.69 ± 0.48 kg/m3; the mass density (303.15 K) is on record as 1290.66 ± 0.48 kg/m3; the mass density (308.15 K) was determined as 1286.64 ± 0.47 kg/m3; the mass density (313.15 K) was found to be 1282.63 ± 0.47 kg/m3. Further, the mass density (318.15 K) is 1278.72 ± 0.47 kg/m3.

For `CCCCCCn1cc[n+](C)c1.F[B-](F)(F)F` [1-hexyl-3-methylimidazolium tetrafluoroborate], the speed of sound is recorded as 1548.8 ± 1.2 m/s (288.15 K); 1535 ± 1.2 m/s (293.15 K); 1521.9 ± 1.2 m/s (298.15 K); 1509.2 ± 1.2 m/s (303.15 K); 1497 ± 1.2 m/s (308.15 K); 1485 ± 1.2 m/s (313.15 K). Also, the speed of sound (318.15 K) was 1473.3 ± 1.2 m/s. Also, the mass density runs as follows: (288.15 K) 1155.32 ± 0.36 kg/m3; (293.15 K) 1151.79 ± 0.35 kg/m3; (298.15 K) 1148.26 ± 0.35 kg/m3; (303.15 K) 1144.74 ± 0.35 kg/m3; (308.15 K) 1141.23 ± 0.34 kg/m3; (313.15 K) 1137.83 ± 0.34 kg/m3. Where the note is “318.15 K”, the mass density is given as 1134.43 ± 0.34 kg/m3.

Turning to `COCCO` [2-methoxyethan-1-ol], the speed of sound by setting is: (288.15 K) 1376.5 ± 0.85 m/s; (293.15 K) 1359 ± 0.85 m/s; (298.15 K) 1341.7 ± 0.84 m/s; (303.15 K) 1324.5 ± 0.84 m/s; (308.15 K) 1307.1 ± 0.83 m/s; (313.15 K) 1290 ± 0.83 m/s. Moreover, the speed of sound (318.15 K) is 1272.8 ± 0.82 m/s. The mass density by setting is: (288.15 K) 969.374 ± 0.091 kg/m3; (293.15 K) 964.809 ± 0.092 kg/m3; (298.15 K) 960.222 ± 0.094 kg/m3; (303.15 K) 955.615 ± 0.095 kg/m3; (308.15 K) 950.971 ± 0.097 kg/m3; (313.15 K) 946.306 ± 0.098 kg/m3. For the same molecule, the mass density (318.15 K) is on record as 941.609 ± 0.099 kg/m3.

As to `CCCCCCn1cc[n+](C)c1.[Br-]` [3-hexyl-1-methyl-1H-imidazolium bromide], the speed of sound (288.15 K) was found to be 1639.8 ± 1.3 m/s; the speed of sound (293.15 K) stood at 1610.6 ± 1.3 m/s; the speed of sound (298.15 K) came to 1587.5 ± 1.3 m/s; the speed of sound (303.15 K) came to 1568.1 ± 1.3 m/s; the speed of sound (308.15 K) was 1551.2 ± 1.3 m/s; the speed of sound (313.15 K) stood at 1533.5 ± 1.2 m/s. In addition, where the note is “318.15 K”, the speed of sound was 1517.8 ± 1.2 m/s. Besides, the mass density (288.15 K) is reported as 1231.03 ± 0.42 kg/m3; the mass density (293.15 K) is 1227.49 ± 0.42 kg/m3; the mass density (298.15 K) is given as 1223.82 ± 0.42 kg/m3; the mass density (303.15 K) is given as 1220.47 ± 0.41 kg/m3; the mass density (308.15 K) amounted to 1216.79 ± 0.41 kg/m3; the mass density (313.15 K) is 1213.28 ± 0.41 kg/m3. In addition, the mass density (318.15 K) turned out to be 1209.94 ± 0.4 kg/m3.
